Test results from patent US8227205B2 (priority 2007, dated 2012).

Tests used:
Type in all cases: cell-based
Jurkat cells = test: CytoTox-Glo live and dead cell luminescence assay; conditions: Jurkat cells, 10,000 cells/well, 6 hours, FIG. 5/FIG. 7
Experimental: Ionomycin (a calcium ionophore which affects calcium flux across cell membranes, and therefore a model necrosis inducing agent at high concentrations) was two fold serially diluted from 100 μM in RPMI 1640+10% FBS in 50 μL volumes. Jurkat cells were added to 10,000 cells/well in a 50 μL volume. The plate was shaken briefly using an orbital shaker and then incubated for 6 hours at 37° C. CytoTox-Glo Reagent was prepared as above and added to each well in a equal volume (100 μL) per well. The plate was incubated at room temperature for 15 minutes and the dead cell signal measured using a BMG PolarStar. Digitonin (20 mg/mL in DMSO) was diluted to 300 μg/mL in CytoTox-Glo buffer and added in 20 μL volumes per well to facilitate complete cellular lysis. Luminescence was measured after 15 minutes of incubation at room temperature.
The luminescent signal collected after lysis was adjusted to reflect the “live cell” contribution by subtracting the initial dead cell signal. […]
Staurosporine (multiple mechanism apoptosis inducer) was two fold serially diluted from 20 μM in RPMI 1640+10% FBS in a microwell plate in 50 μL, volumes. […] The plate was incubated at room temperature for 15 minutes and the dead cell signal measured using a BMG PolarStar. […] Luminescence was measured after 15 minutes of incubation at room temperature. […]

K562cells = test: CytoTox-Glo dual measurement of cell viability and cytotoxicity (dead cell luminescence, then digitonin lysis, subtractive live cell signal); conditions: K562 cells, 5,000 cells/well, 24 hours, two-fold serial dilution from 10 μM, FIG. 11A
Experimental: (§1) Campothecin was two-fold serially-diluted in RPMI 1640+10% FBS medium from 10 μM and added in 50 μL volumes. The cells were incubated at 37° C., 5% CO2 for 24 hours. CytoTox-Glo reagent was prepared as described above and added to each well in an equal volume (100 μL). After 15 minutes of incubation, the dead cell signal was measured. Digitonin (20 mg/mL in DMSO) was diluted in CytoTox-Glo buffer and added in 20 μL volumes to each well to facilitate complete cell lysis. Luminescence was measured after 15 minutes of incubation at room temperature.
The luminescent signal collected after lysis was adjusted to reflect the “live cell” contribution by subtracting the initial dead cell signal. The data were plotted as the non-viable and viable signals versus the concentration of campothecin (FIG. 11A). […] If only viability was measured, one might conclude that the compound was substantially cytotoxic. If only cytotoxicity was measured, one might conclude that the compound was not very potent. Either interpretation would be faulty.

HeLa cells = test: as above; conditions: HeLa cells, 10,000 cells/well, 24 hours, FIG. 11B/11C
Experimental: In FIG. 11B, HeLa cells were seeded at a 10,000 cells/well in DMEM+10% FBS in 50 μl volumes and incubated overnight at 37° C. in 5% CO2. Nocodazole was two-fold serially diluted in DMEM+10% FBS in a separate plate from 2 μM and added in 50 μL it volumes (highest final dosage is 1,000 nM). The cells were allowed to incubate with the compound for 24 hours. CytoTox-Glo Reagent was prepared as above and added to each well in an equal volume (100 μL). After 15 minutes of incubation, the dead cell signal was collected. Digitonin (20 mg/mL in DMSO) was diluted in CytoTox-Glo buffer and added in 20 μL volumes to each well to facilitate complete cell lysis. Luminescence was measured after 15 minutes of incubation at room temperature.
The luminescent signal collected after lysis was adjusted to reflect the “live cell” contribution by subtracting the initial dead cell signal. The data were plotted as the non-viable and viable signals versus the concentration of nocodazole.
In FIG. 11C, HeLa cells were seeded at a 10,000 cells/well in DMEM+10% FBS in 50 μL volumes and incubated overnight at 37° C. in 5% CO2. Colchicine was two-fold serially diluted in DMEM+10% FBS in a separate plate from 1,000 nM and added in 50 μL volumes (highest final dosage was 500 nM). The cells were allowed to incubate with the compound for 24 hours. […] Luminescence was measured after 15 minutes of incubation at room temperature. […]

DU-145 cells = test: CytoTox-Glo live and dead cell luminescence assay; conditions: DU-145 cells, 5,000 cells/well, 48 hours, FIG. 10A
Experimental: as §1, with “DU-145 cells were seeded at a density of 5,000 cells/well in 50 μL of MEM+10% FBS and allowed to attach overnight. Epoxomicin (a proteasome inhibitor)” for “Campothecin”, “serially diluted from 5 μM” for “two-fold serially-diluted”, “MEM+10%” for “RPMI 1640+10%”, “FBS” for “FBS medium from 10 μM”, “with the compound” for “at 37° C., 5% CO2”, “48” for “24”
The luminescent signal collected after lysis was adjusted to reflect the “live cell” contribution by subtracting the initial dead cell signal. The data were plotted as the non-viable and viable signals versus the concentration of epoxomicin (FIG. 10A). […] The data also represents yet another toxin and mechanistic form of cell death.

| SMILES | dead and live cell signals versus the concentration of compound (Jurkat cells) | non-viable and viable signals versus the concentration of compound (viability and cytotoxicity) (HeLa cells) | further results |
| --- | --- | --- | --- |
| CN[C@@H]1C[C@H]2O[C@@](C)([C@@H]1OC)n1c3ccccc3c3c4c(c5c6ccccc6n2c5c31)C(=O)NC4 [Staurosporine] | live and dead cells were inversely complimentary |  |  |
| CC[C@@]1(O)C(=O)OCc2c1cc1n(c2=O)Cc2cc3ccccc3nc2-1 [campothecin, Campothecin] |  |  | non-viable and viable signals versus the concentration of compound (viability and cytotoxicity) (K562cells): early cytotoxicity because of cell-cycle arrest |
| COc1cc2c(c(OC)c1OC)-c1ccc(OC)c(=O)cc1[C@@H](NC(C)=O)CC2 [colchicine, Colchicine] |  | viability is reduced because of the cytotoxicity of the compound |  |
| CC[C@H](C)[C@H](NC(=O)[C@H]([C@@H](C)CC)N(C)C(C)=O)C(=O)N[C@H](C(=O)N[C@@H](CC(C)C)C(=O)[C@@]1(C)CO1)[C@@H](C)O [epoxomicin, Epoxomicin] |  |  | non-viable and viable signals versus the concentration of compound (DU-145 cells): viable and non-viable cells were inversely complimentary |
| C[C@H](CCC(=O)O)C[C@H](C)C[C@H](C)C(=O)/C=C(\O)[C@H](C)C[C@H](C)C/C=C/[C@@H](C)[C@@H](O)[C@@H](C)[C@@H](O)C[C@@H]1CC[C@@](C)([C@H]2CC[C@@](C)([C@@H](C)O)O2)O1 [ionomycin, Ionomycin] | live and dead cells were inversely complimentary |  |  |
| COC(=O)Nc1nc2ccc(C(=O)c3cccs3)cc2[nH]1 [nocodazole, Nocodazole] |  | viability and cytotoxicity are ratiometric |  |
